row,melting point,SMILES
1,211 to 214 °C,COc1cc2c(C3C(=O)Nc4c(F)cccc43)ncnc2cc1OCCCN1CCOCC1.Cl.Cl (stereo not shown)
2,200 °C (dec.),CN1CCN(CCCOc2ccc3c(C4C(=O)Nc5ccc(C#N)cc54)ncnc3c2)CC1.Cl.Cl (stereo not shown)
3,167.5 to 168.7 °C,"CN(C)C(=O)c1ccc2c(c1)C(c1ncnc3cc(OCCCN4CCOCC4)ccc13)C(=O)N2 (stereo not shown) [Example 43, 3-[7-(3-Morpholin-4-yl-propoxy)quinazolin-4-yl]-2-oxo-2,3-dihydro-1H-indole-5-carboxylic acid dimethylamide]"
4,195 to 198 °C,"CNC(=O)c1ccc2c(c1)C(c1ncnc3cc(OCCCN4CCOCC4)ccc13)C(=O)N2 (stereo not shown) [Example 44, 3-[7-(3-Morpholin-4-yl-propoxy)-quinazolin-4-yl]-2-oxo-2,3-dihydro-1H-indole-5-carboxylic acid methylamide]"
